The values that follow come from PubChem BioAssay AID248 (DTP/NCI, 2004).

Values joined by “and” are separate entries in the source; they are usually repeats but may differ in a detail not shown here. Equal values may be shown once. Inconclusive results and toxic doses are left out.

The test has as its system L1210 leukemia ip in BDF1 mice, survival T/C. The test can be described thus: NCI In Vivo Anticancer Drug Screen. Data for tumor model L1210 Leukemia (intraperitoneal) in B6D2F1 (BDF1) mice. To be noted: higher = longer survival. The gist of the method: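 Each compound was tested against a transplantable tumor grown in mice. The endpoint was survival, with treated animals benchmarked against vehicle controls as a simple ratio.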

[1] abbreviates: endpoint: mean survival time, dose: 12.5 mg/kg/injection, schedule: Q01DX009 (ip), vehicle: Klucel (hydroxypropylcellulose) (HPC).
The mark [2] stands for this setting: endpoint: mean survival time, dose: 25.0 mg/kg/injection, schedule: Q01DX009 (ip), vehicle: Klucel (hydroxypropylcellulose) (HPC).
[3] abbreviates: endpoint: mean survival time, dose: 50.0 mg/kg/injection, schedule: Q01DX009 (ip), vehicle: Klucel (hydroxypropylcellulose) (HPC).
[4] abbreviates: endpoint: mean survival time, dose: 100.0 mg/kg/injection, schedule: Q04DX003 (ip), vehicle: Klucel (hydroxypropylcellulose) (HPC).
[5] abbreviates: endpoint: mean survival time, dose: 200.0 mg/kg/injection, schedule: Q04DX003 (ip), vehicle: Klucel (hydroxypropylcellulose) (HPC).
[6] abbreviates: endpoint: mean survival time, dose: 400.0 mg/kg/injection, schedule: Q04DX003 (ip), vehicle: Klucel (hydroxypropylcellulose) (HPC).
[7] abbreviates: endpoint: mean survival time, dose: 100.0 mg/kg/injection, schedule: Q04DX003 (ip), vehicle: saline with Tween-80.
[8] abbreviates: endpoint: mean survival time, dose: 200.0 mg/kg/injection, schedule: Q04DX003 (ip), vehicle: saline with Tween-80.

Consider `CCOC(=O)CC(=O)C1CCC2C3CC=C4CC(OC(=O)OCC)CCC4(C)C3CCC12C` (stereo not given), for which the T/C was 104 % of control (endpoint: mean survival time, dose: 25.0 mg/kg/injection, schedule: Q01DX001 (sc), vehicle: olive oil, sesame oil, peanut oil); 107 % of control (endpoint: mean survival time, dose: 50.0 mg/kg/injection, schedule: Q01DX001 (sc), vehicle: olive oil, sesame oil, peanut oil); 93 % of control (endpoint: mean survival time, dose: 100.0 mg/kg/injection, schedule: Q01DX001 (sc), vehicle: olive oil, sesame oil, peanut oil).
Turning to `COc1ccc2nc(N=Nc3c(N)nc(N)nc3N)sc2c1`, the T/C is, setting by setting: (endpoint: mean survival time, dose: 100.0 mg/kg/injection, schedule: Q01DX001 (ip), vehicle: saline) 96 % of control; (endpoint: mean survival time, dose: 200.0 mg/kg/injection, schedule: Q01DX001 (ip), vehicle: saline) 105 % of control.
As to `Cc1cnc2c(=O)[nH]c(=O)[nH]c2n1`, the T/C under setting [1] is 102 % of control; the T/C under setting [2] was 98 % of control; the T/C under setting [3] is 96 % of control; the T/C under setting [4] was 96 % of control; the T/C under setting [5] was 92 % of control; the T/C under setting [6] is 92 % of control.
Consider `OCCN(Cc1ccccc1)Cc1ccccc1`, for which the T/C reads like this: under setting [7], 101 % of control; under setting [8], 95 % of control.
For the compound `N#CCCC(CCC#N)c1cccc(C(CCC#N)CCC#N)n1`, the T/C is, setting by setting: (endpoint: mean survival time, dose: 12.5 mg/kg/injection, schedule: Q04DX003 (ip), vehicle: Klucel (hydroxypropylcellulose) (HPC)) 96 % of control; (endpoint: mean survival time, dose: 25.0 mg/kg/injection, schedule: Q04DX003 (ip), vehicle: Klucel (hydroxypropylcellulose) (HPC)) 95 % of control; (endpoint: mean survival time, dose: 50.0 mg/kg/injection, schedule: Q04DX003 (ip), vehicle: Klucel (hydroxypropylcellulose) (HPC)) 90 % of control; under setting [4], 96 % of control.
Turning to `COc1cc2c3c(c1)/C(=N\NC(N)=O)CCN3CCC2`, the T/C by setting is: under setting [4], 98 % of control; under setting [5], 103 % of control; under setting [6], 108 % of control.
Turning to `O=C[C@@H](CO)O[C@H](C=O)n1cnc2c(=O)[nH]cnc21`, the T/C by setting is: (endpoint: mean survival time, dose: 35.0 mg/kg/injection, schedule: Q01DX009 (ip), vehicle: saline) 116 % of control; (endpoint: mean survival time, dose: 35.0 mg/kg/injection, schedule: Q01DX009 (ip), vehicle: water) 122 % of control; (endpoint: mean survival time, dose: 35.0 mg/kg/injection, schedule: Q01DX Z (ip), vehicle: water) 120 % of control; (endpoint: mean survival time, dose: 70.0 mg/kg/injection, schedule: Q01DX009 (ip), vehicle: saline) 188 % of control; (endpoint: mean survival time, dose: 70.0 mg/kg/injection, schedule: Q01DX009 (ip), vehicle: water) 155 % of control; (endpoint: mean survival time, dose: 79.0 mg/kg/injection, schedule: Q01DX009 (oral), vehicle: saline) 93 % of control. In addition, the T/C is, setting by setting: (endpoint: mean survival time, dose: 80.0 mg/kg/injection, schedule: Q01DX009 (ip), vehicle: saline) 167 % of control; (endpoint: mean survival time, dose: 98.0 mg/kg/injection, schedule: Q01DX006 (ip), vehicle: saline) 219 % of control; (endpoint: mean survival time, dose: 98.0 mg/kg/injection, schedule: Q ##X009 (ip), vehicle: saline) 227 % of control; (endpoint: mean survival time, dose: 98.0 mg/kg/injection, schedule: Q## X Z (ip), vehicle: saline) 227 % of control; (endpoint: mean survival time, dose: 119.0 mg/kg/injection, schedule: Q01DX009 (oral), vehicle: saline) 110 % of control; (endpoint: mean survival time, dose: 120.0 mg/kg/injection, schedule: Q01DX009 (ip), vehicle: saline) 167 % of control and 188 % of control. The T/C was 161 % of control (endpoint: mean survival time, dose: 125.0 mg/kg/injection, schedule: Q01DX009 (ip), vehicle: saline with Tween-80); 205 % of control (endpoint: mean survival time, dose: 140.0 mg/kg/injection, schedule: Q01DX006 (ip), vehicle: saline); 176 % of control and 184 % of control (endpoint: mean survival time, dose: 140.0 mg/kg/injection, schedule: Q01DX009 (ip), vehicle: saline); 250 % of control (endpoint: mean survival time, dose: 140.0 mg/kg/injection, schedule: Q01DX009 (ip), vehicle: water); 253 % of control (endpoint: mean survival time, dose: 140.0 mg/kg/injection, schedule: Q01DX Z (ip), vehicle: water); 246 % of control (endpoint: mean survival time, dose: 140.0 mg/kg/injection, schedule: Q ##X009 (ip), vehicle: saline). Also, the T/C is 246 % of control (endpoint: mean survival time, dose: 140.0 mg/kg/injection, schedule: Q## X Z (ip), vehicle: saline); 206 % of control (endpoint: mean survival time, dose: 150.0 mg/kg/injection, schedule: Q01DX009 (ip), vehicle: saline with Tween-80); 215 % of control (endpoint: mean survival time, dose: 175.0 mg/kg/injection, schedule: Q01DX009 (ip), vehicle: saline with Tween-80); 102 % of control (endpoint: mean survival time, dose: 178.0 mg/kg/injection, schedule: Q01DX009 (oral), vehicle: saline); 227 % of control and 251 % of control (endpoint: mean survival time, dose: 180.0 mg/kg/injection, schedule: Q01DX009 (ip), vehicle: saline); 439 % of control (endpoint: mean survival time, dose: 200.0 mg/kg/injection, schedule: Q01DX009 (ip), vehicle: saline with Tween-80). Also, the T/C is 165 % of control under setting [8]; 427 % of control (endpoint: mean survival time, dose: 225.0 mg/kg/injection, schedule: Q01DX009 (ip), vehicle: saline with Tween-80); 172 % of control (endpoint: mean survival time, dose: 250.0 mg/kg/injection, schedule: Q04DX003 (ip), vehicle: saline with Tween-80); 110 % of control (endpoint: mean survival time, dose: 267.0 mg/kg/injection, schedule: Q01DX009 (oral), vehicle: saline); 182 % of control (endpoint: mean survival time, dose: 270.0 mg/kg/injection, schedule: Q01DX009 (ip), vehicle: saline); 89 % of control (endpoint: mean survival time, dose: 280.0 mg/kg/injection, schedule: Q01DX009 (ip), vehicle: saline). Also, the T/C by setting is: (endpoint: mean survival time, dose: 300.0 mg/kg/injection, schedule: Q04DX003 (ip), vehicle: saline with Tween-80) 245 % of control; (endpoint: mean survival time, dose: 350.0 mg/kg/injection, schedule: Q04DX003 (ip), vehicle: saline with Tween-80) 318 % of control; (endpoint: mean survival time, dose: 400.0 mg/kg/injection, schedule: Q01DX009 (oral), vehicle: saline) 102 % of control; (endpoint: mean survival time, dose: 400.0 mg/kg/injection, schedule: Q04DX003 (ip), vehicle: saline with Tween-80) 401 % of control; (endpoint: mean survival time, dose: 600.0 mg/kg/injection, schedule: Q01DX009 (oral), vehicle: saline) 104 % of control; (endpoint: median survival time, dose: 108.0 mg/kg/injection, schedule: Q01DX009 (ip), vehicle: water) 166 % of control. For the same compound, the T/C (endpoint: median survival time, dose: 180.0 mg/kg/injection, schedule: Q01DX009 (ip), vehicle: water) is 461 % of control.
Consider `O=[N+]([O-])c1ccc2c(c1)-c1ccccc1C2Br` (stereo not given), for which the T/C is 88 % of control (endpoint: mean survival time, dose: 100.0 mg/kg/injection, schedule: Q01DX005 (ip), vehicle: Klucel (hydroxypropylcellulose) (HPC)); 117 % of control (endpoint: mean survival time, dose: 100.0 mg/kg/injection, schedule: Q04DX002 (ip), vehicle: Klucel (hydroxypropylcellulose) (HPC)); 101 % of control (endpoint: mean survival time, dose: 200.0 mg/kg/injection, schedule: Q04DX002 (ip), vehicle: Klucel (hydroxypropylcellulose) (HPC)); 102 % of control (endpoint: mean survival time, dose: 400.0 mg/kg/injection, schedule: Q01DX005 (ip), vehicle: Klucel (hydroxypropylcellulose) (HPC)); 90 % of control (endpoint: mean survival time, dose: 400.0 mg/kg/injection, schedule: Q04DX002 (ip), vehicle: Klucel (hydroxypropylcellulose) (HPC)).
Take `CCN(C(=O)NC(C)(C)C)c1cccc(C)c1`: the T/C was 108 % of control (endpoint: mean survival time, dose: 12.5 mg/kg/injection, schedule: Q01DX009 (ip), vehicle: saline with Tween-80); 105 % of control and 106 % of control (endpoint: mean survival time, dose: 25.0 mg/kg/injection, schedule: Q01DX009 (ip), vehicle: saline with Tween-80); 122 % of control (endpoint: mean survival time, dose: 100.0 mg/kg/injection, schedule: Q01DX001 (ip), vehicle: saline with Tween-80); 101 % of control and 86 % of control (endpoint: mean survival time, dose: 100.0 mg/kg/injection, schedule: Q04DX002 (ip), vehicle: saline with Tween-80); 102 % of control under setting [7]; 94 % of control and 97 % of control (endpoint: mean survival time, dose: 200.0 mg/kg/injection, schedule: Q04DX002 (ip), vehicle: saline with Tween-80). Moreover, the T/C was 105 % of control under setting [8]; 103 % of control (endpoint: mean survival time, dose: 400.0 mg/kg/injection, schedule: Q01DX001 (ip), vehicle: saline with Tween-80); 101 % of control (endpoint: mean survival time, dose: 400.0 mg/kg/injection, schedule: Q04DX002 (ip), vehicle: saline with Tween-80).
Take `CC(C)(C)NCC(CN(CC(CNC(C)(C)C)C(=O)c1ccccc1)C(C)(C)C)C(=O)c1ccccc1` (stereo not given): the T/C is 104 % of control under setting [1], 101 % of control under setting [2], 106 % of control under setting [3] and 93 % of control under setting [4].
